Like-named read-outs stand apart in the source and are kept apart here. Numbered stars: 1 amine (or outer) side, 2 acyl side, 3 side chain; on linkers, the order of the positions; unused ones are H or OH. Square brackets hold non-standard residues; d marks the D form. Side chains are listed from the residue outwards. Peptide text beside a SMILES is read from it. * marks the point of attachment. γGlu = O=C(O)[C@H](CCC(=O)[*:2])N[*:1]; αMeF = C[C@](N)(Cc1ccccc1)C(=O)O; αMeK = C[C@](N)(CCCCN)C(=O)O; Lauroyl = CCCCCCCCCCCC(=O)*; αMeS = C[C@](N)(CO)C(=O)O; AEEA = NCCOCCOCC(=O)O; Aib = CC(C)(N)C(=O)O
Assays:
Type in all cases: cell-based
[1] = target: T1, human glucagon receptor (GCGR) (Homo sapiens, UniProt P47871); test: cAMP assay, human GCGR cells
T1 construct: expressed in transfected cells
Outline: (§1)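 Peptide-stimulated cAMP measured by two-step HTRF after a 30 min room-temperature incubation with receptor-expressing cells (hGLP-1R, hGIPR at 1×10^5 cells/ml; hGCGR at 2×10^5 cells/ml). Duplicate dilutions; EC50 from 4-parameter logistic fit of % Delta F.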

GLP-1R (INS1e assay) = target: T2, GLP-1R (INS1e assay) (Rattus norvegicus, UniProt P32301); test: INS1e assay, cAMP activity at GLP-1R
T2 construct: endogenous in cells; host or cells: INS-1E cells
T2 sequence (P32301 22-463): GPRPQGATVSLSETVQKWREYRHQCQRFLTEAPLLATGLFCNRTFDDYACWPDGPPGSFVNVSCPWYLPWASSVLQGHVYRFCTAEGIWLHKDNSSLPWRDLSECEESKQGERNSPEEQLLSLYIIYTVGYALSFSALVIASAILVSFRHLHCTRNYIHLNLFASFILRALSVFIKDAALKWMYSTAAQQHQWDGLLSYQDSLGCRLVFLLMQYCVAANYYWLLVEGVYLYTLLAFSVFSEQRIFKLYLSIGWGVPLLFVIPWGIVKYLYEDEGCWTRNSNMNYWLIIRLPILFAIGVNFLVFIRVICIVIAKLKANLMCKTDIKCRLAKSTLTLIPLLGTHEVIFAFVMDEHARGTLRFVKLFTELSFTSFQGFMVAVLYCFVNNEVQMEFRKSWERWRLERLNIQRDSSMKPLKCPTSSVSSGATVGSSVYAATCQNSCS
Outline: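 It pairs cAMP-d2 acceptor with anti-cAMP cryptate donor, both prepared 1/20 in conjugate/lysis buffer, applied as a two-step protocol.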

[2] = target: T3, human glucose-dependent insulinotropic peptide receptor (GIPR) (Homo sapiens, UniProt P48546); test: cAMP assay, human GIPR cells
T3 construct: expressed in transfected cells
T3 sequence (P48546 22-466): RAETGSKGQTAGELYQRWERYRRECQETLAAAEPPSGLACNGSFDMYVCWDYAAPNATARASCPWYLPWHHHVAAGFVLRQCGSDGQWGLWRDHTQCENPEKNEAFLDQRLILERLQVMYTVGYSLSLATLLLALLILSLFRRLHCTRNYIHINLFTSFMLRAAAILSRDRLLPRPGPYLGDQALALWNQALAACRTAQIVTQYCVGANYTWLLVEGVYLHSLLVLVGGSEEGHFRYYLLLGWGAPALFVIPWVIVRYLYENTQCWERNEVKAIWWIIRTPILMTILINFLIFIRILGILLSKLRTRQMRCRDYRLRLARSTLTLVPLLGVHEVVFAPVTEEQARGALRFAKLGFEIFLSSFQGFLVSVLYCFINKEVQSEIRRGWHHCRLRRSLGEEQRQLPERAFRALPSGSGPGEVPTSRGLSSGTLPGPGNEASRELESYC
Outline: as §1

[3] = target: T4, human GLP-1 receptor (GLP-1R) (Homo sapiens, UniProt P43220); test: cAMP assay, human GLP-1R cells
T4 construct: expressed in transfected cells
Outline: as §1

[4] = cAMP assay, first determination (n1), read-out: Primary assay EC50 Gluc-R (n1)
[5] = mono-lipidated peptides, mean of n1 and n2, read-out: INS1e assay EC50 Mean pM GLP-1R
[6] = mono-lipidated peptides, replicate n1, read-out: INS1e assay EC50 GLP-1R n1
[7] = mono-lipidated peptides, replicate n2, read-out: INS1e assay EC50 GLP-1R n2
[8] = cAMP assay, first determination (n1), read-out: Primary assay EC50 GIP-R (n1)

T1 sequence (P47871 26-477): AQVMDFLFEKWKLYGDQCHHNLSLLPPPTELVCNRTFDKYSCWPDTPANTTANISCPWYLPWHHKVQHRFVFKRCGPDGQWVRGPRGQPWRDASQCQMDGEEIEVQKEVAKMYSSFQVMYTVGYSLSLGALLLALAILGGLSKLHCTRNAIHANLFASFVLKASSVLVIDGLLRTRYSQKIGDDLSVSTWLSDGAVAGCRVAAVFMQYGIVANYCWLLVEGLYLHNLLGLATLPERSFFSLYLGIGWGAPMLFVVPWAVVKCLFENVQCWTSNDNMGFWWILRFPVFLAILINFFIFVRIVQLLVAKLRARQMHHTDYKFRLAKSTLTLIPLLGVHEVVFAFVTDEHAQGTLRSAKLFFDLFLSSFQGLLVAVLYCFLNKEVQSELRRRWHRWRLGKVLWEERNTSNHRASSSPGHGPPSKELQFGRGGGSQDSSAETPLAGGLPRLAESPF
T4 sequence (P43220 24-463): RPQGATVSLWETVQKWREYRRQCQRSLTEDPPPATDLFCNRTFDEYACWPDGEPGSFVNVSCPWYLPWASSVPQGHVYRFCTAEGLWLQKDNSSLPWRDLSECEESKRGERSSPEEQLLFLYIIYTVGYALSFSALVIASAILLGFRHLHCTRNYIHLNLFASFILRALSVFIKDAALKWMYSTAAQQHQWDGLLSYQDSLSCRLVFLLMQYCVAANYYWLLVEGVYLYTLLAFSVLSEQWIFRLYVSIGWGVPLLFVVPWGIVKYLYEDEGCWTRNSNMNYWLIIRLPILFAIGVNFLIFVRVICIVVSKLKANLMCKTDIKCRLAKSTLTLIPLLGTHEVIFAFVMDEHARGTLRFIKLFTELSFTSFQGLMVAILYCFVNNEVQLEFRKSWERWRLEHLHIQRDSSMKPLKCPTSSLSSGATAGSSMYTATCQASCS

Structure (SMILES) | EC50 [1, 4] [nM] | EC50 (GLP-1R (INS1e assay); [5]) [pM] | EC50 (GLP-1R (INS1e assay); [6]) [pM] | EC50 (GLP-1R (INS1e assay); [7]) [pM] | EC50 [2, 8] [nM] | EC50 ([3]; cAMP assay, first determination (n1), read-out: Primary assay EC50 GLP-1R n1) [pM] | EC50 ([3]; cAMP assay, second determination (n2), read-out: Primary assay EC50 GLP-1R n2) [pM] | EC50 ([3]; mean of n1 and n2, read-out: Mean pM GLP-1R) [pM] | EC50 ([1]; cAMP assay, second determination (n2), read-out: Primary assay EC50 Gluc-R (n2)) [nM] | EC50 ([2]; cAMP assay, second determination (n2), read-out: Primary assay EC50 GIP-R (n2)) [nM] | EC50 ([1]; tris-lipidated peptides, second replicate, read-out: Primary assay EC50 Gluc-R (n2)) [nM] | EC50 (GLP-1R (INS1e assay); tris-lipidated peptides, mean of n1 and n2, read-out: INS1e assay EC50 Mean pM GLP-1R) [pM] | EC50 (GLP-1R (INS1e assay); tris-lipidated peptides, replicate n1, read-out: INS1e assay EC50 GLP-1R n1) [pM] | EC50 (GLP-1R (INS1e assay); tris-lipidated peptides, replicate n2, read-out: INS1e assay EC50 GLP-1R n2) [pM] | EC50 ([2]; tris-lipidated peptides, first replicate, read-out: Primary assay EC50 GIP-R (n1)) [nM]
CC[C@H](C)[C@H](NC(=O)[C@](C)(Cc1ccccc1)NC(=O)[C@H](CCC(=O)O)NC(=O)[C@H](CCCCNC(=O)COCCOCCNC(=O)COCCOCCNC(=O)CC[C@H](NC(=O)CCCCCCCCCCCCCCCCC(=O)O)C(=O)O)NC(=O)[C@H](C)NC(=O)[C@H](C)NC(=O)[C@H](CCC(=O)O)NC(=O)CNC(=O)[C@H](CCC(=O)O)NC(=O)[C@H](CC(C)C)NC(=O)[C@](C)(Cc1ccccc1)NC(=O)[C@H](CO)NC(=O)[C@](C)(CO)NC(=O)[C@@H](NC(=O)[C@H](CC(=O)O)NC(=O)[C@H](CO)NC(=O)[C@@H](NC(=O)[C@](C)(Cc1ccccc1)NC(=O)[C@H](CO)NC(=O)CNC(=O)[C@H](CCC(=O)O)NC(=O)C(C)(C)NC(=O)[C@@H](N)Cc1c[nH]cn1)[C@@H](C)O)C(C)C)C(=O)N[C@@H](C)C(=O)N[C@@](C)(Cc1ccccc1)C(=O)N[C@H](C(=O)N[C@H](C(=O)N[C@@H](CCCCN)C(=O)NCC(=O)NCC(N)=O)C(C)C)C(C)C [compound 50] | ≥ 26 | 32400 | 22100 | 42600 | ≥ 26 | 170 | 260 | 216 | – | – | – | – | – | – | –
CC[C@H](C)[C@H](NC(=O)[C@](C)(Cc1ccccc1)NC(=O)[C@H](CCC(=O)O)NC(=O)[C@](C)(CCCCN)NC(=O)[C@H](C)NC(=O)[C@H](C)NC(=O)[C@H](CCC(=O)O)NC(=O)CNC(=O)[C@H](CCC(=O)O)NC(=O)[C@H](CC(C)C)NC(=O)[C@H](CCCCNC(=O)COCCOCCNC(=O)COCCOCCNC(=O)CC[C@H](NC(=O)CCCCCCCCCCCCCCCCC(=O)O)C(=O)O)NC(=O)[C@H](CO)NC(=O)[C@](C)(CO)NC(=O)[C@@H](NC(=O)[C@H](CC(=O)O)NC(=O)[C@H](CO)NC(=O)[C@@H](NC(=O)[C@](C)(Cc1ccccc1)NC(=O)[C@H](CO)NC(=O)CNC(=O)[C@H](CCC(=O)O)NC(=O)C(C)(C)NC(=O)[C@@H](N)Cc1c[nH]cn1)[C@@H](C)O)C(C)C)C(=O)N[C@@H](C)C(=O)N[C@@](C)(Cc1ccccc1)C(=O)N[C@H](C(=O)N[C@H](C(=O)N[C@@](C)(CCCCN)C(=O)NCC(=O)NCC(N)=O)C(C)C)C(C)C [compound 116] | ≥ 26 | 1110 | 1610 | 610 | ≥ 26 | – | – | – | ≥ 25.6 | ≥ 25.6 | – | – | – | – | –
CCCCCCCCCCCC(=O)N[C@@H](CCC(=O)NCCOCCOCC(=O)NCCOCCOCC(=O)NCCCC[C@H](NC(=O)CNC(=O)[C@H](CCC(=O)O)NC(=O)[C@H](CC(C)C)NC(=O)[C@H](CCCCNC(=O)COCCOCCNC(=O)COCCOCCNC(=O)CC[C@H](NC(=O)CCCCCCCCCCC)C(=O)O)NC(=O)[C@H](CO)NC(=O)[C@](C)(CO)NC(=O)[C@@H](NC(=O)[C@H](CC(=O)O)NC(=O)[C@H](CO)NC(=O)[C@@H](NC(=O)[C@](C)(Cc1ccccc1)NC(=O)[C@H](CO)NC(=O)CNC(=O)[C@H](CCC(=O)O)NC(=O)C(C)(C)NC(=O)[C@@H](N)Cc1c[nH]cn1)[C@@H](C)O)C(C)C)C(=O)N[C@@H](C)C(=O)N[C@@H](C)C(=O)N[C@@](C)(CCCCN)C(=O)N[C@@H](CCC(=O)O)C(=O)N[C@@H](Cc1ccccc1)C(=O)N[C@H](C(=O)N[C@@H](C)C(=O)N[C@@H](Cc1ccccc1)C(=O)N[C@@H](CCCCNC(=O)COCCOCCNC(=O)COCCOCCNC(=O)CC[C@H](NC(=O)CCCCCCCCCCC)C(=O)O)C(=O)N[C@H](C(=O)N[C@@H](CCC(=O)O)C(=O)NCC(=O)NCC(N)=O)C(C)C)[C@@H](C)CC)C(=O)O [compound 480] (H-H[Aib]EGS[αMeF]TSDV[αMeS]SK([AEEA-AEEA-γGlu-Lauroyl])LEGK([AEEA-AEEA-γGlu-Lauroyl])AA[αMeK]EFIAFK([AEEA-AEEA-γGlu-Lauroyl])VEGG-NH2) | – | – | – | – | – | – | – | – | – | – | 20 | 6530 | 9370 | 3690 | 20
